Legend:
[1] = design: method as in PMID 18381444; details: mice; cited from earlier work
CAPAN-2 tumor xenografts = assay: Xenograft tumor growth inhibition, combination with MEK inhibitor; assay type: in vivo, mouse; details: 0.3 mg/kg, day 69
Procedure: (§1) Tumors were initiated by injecting either cells (SKOV3, CAPAN-2 and HPAC) or a tumor fragments (BT474) subcutaneously into 6–8 week female athymic nude (SKOV3) and SCID (all others) mice. Once tumors reached between 120 and 300 mm^3, mice were randomized according to tumor volume into groups of n = 7–10 mice per treatment. GSK2110183 and GSK2141795 were administered daily at various doses by oral gavage. In combination experiments, GSK1120212 was also administered daily by oral gavage. Tumor volumes and body weight were measured twice weekly, tumor volume was measured with calipers and calculated using equation: […]. Results are represented as percent inhibition on completion of dosing = 100 x [1- average growth of drug-treated population/average growth of vehicle-treated control population].

HPAC tumor xenografts = assay: as above; assay type: in vivo, mouse; details: 0.3 mg/kg daily, day 42
Procedure: as §1

Row | SMILES | hyperglycemia (blood glucose) [1] | TGI (CAPAN-2 tumor xenografts) | TGI (HPAC tumor xenografts)
1 | CCn1c(-c2nonc2N)nc2c(C#CC(C)(C)O)ncc(OC[C@H]3CCCNC3)c21 [GSK690693] | ~500 mg/dL | – | –
2 | CC(=O)Nc1cccc(-n2c(=O)n(C3CC3)c(=O)c3c(Nc4ccc(I)cc4F)n(C)c(=O)c(C)c32)c1 [GSK1120212, trametinib, reference compound] | – | 90% | 65%
